Laboratory results as given in PubChem BioAssay AID463206 (Broad Institute, 2010).
Activity calls are given as the source filed them.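 How the source made its calls: active means caspase luminescence falls with dose and the half-maximal concentration AC50 from the fitted curve is at or below a set limit; inconclusive means flat fit at 30 to 70% signal loss, or invalid fit; inactive means AC50 above the limit, or signal rises instead.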

The compounds below were run on INS-1E cytokine-induced caspase-3/7, Caspase-Glo luminescence, 48 h (assay: inhibitors of cytokine-induced caspase-3/7 activity, dose response, orthogonal assay for beta-cell apoptosis protection project, INS-1E rat cells, luminescence (AID 463206)).
`CCCC(=O)NC(NC(=S)Nc1ccc(N=Nc2ccccc2)cc1)C(Cl)(Cl)Cl` (stereo not given) was tested, and the AC50 was > 26 µM (inactive). For `Cc1ccc(S(=O)(=O)Nc2ccc(C(OC(=O)c3ccccc3[N+](=O)[O-])(C(F)(F)F)C(F)(F)F)cc2)cc1`, the AC50 was > 26 µM (inactive). In the case of `Cc1cc(N2CCCC2=O)cc(C)c1S(=O)(=O)NCCOc1ccc(C(C)(C)C)cc1`, the AC50 is reported as > 26 µM (inactive). `CC[N+]1=C(C)C(C)(C)c2cc(C)ccc21` was tested, and the AC50 was > 26 µM (inactive). In the case of `CCN(CC)c1ccc(CNc2nc3ccccc3n2CCN2CCCCC2)cc1`, the AC50 is reported as > 26 µM (inactive). `CC(NC(=S)NC1CCCCC1)c1ccc(C(C)(C)C)cc1` (stereo not given) was tested, and the AC50 was > 26 µM (inactive). In the case of `C=C(C(=O)c1ccccc1)C(C)C(=C)C(=O)c1ccccc1`, the AC50 is reported as > 26 µM (inactive). In the case of `CCOc1cc(/C=N/NC(=O)c2cc(-c3cccc(OC)c3)nc3ccccc23)ccc1O`, the AC50 is reported as > 26 µM (inactive). In the case of `Cc1sc2ncnc(NCc3cccs3)c2c1C`, the AC50 is reported as > 26 µM (inactive). In the case of `Cc1ccc(OCCN2CCN(c3ncnc4sc(C)c(C)c34)CC2)cc1`, the AC50 is reported as > 26 µM (inactive). For `COc1ccc(N(C(=O)CCl)C(C(=O)NCCc2ccccc2)c2cccs2)cc1Cl` (stereo not given), the AC50 was > 26 µM (inactive). In the case of `CCCCCc1nc2c(c(=O)c3ccccc3n2C)c(=O)n1C1CCCCCC1`, the AC50 is reported as > 26 µM (inactive). In the case of `C(=C\c1nc(N2CCCCCC2)c2ccccc2n1)/c1ccccc1`, the AC50 is reported as > 26 µM (inactive). `COCCNc1nc2c(c(=O)n(C)c(=O)n2C)n1Cc1cccc(C(F)(F)F)c1` was tested, and the AC50 was > 26 µM (inactive). `CS(=O)(=O)N(CC(=O)Nc1ccc(CC#N)cc1)c1ccc(C23CC4CC(CC(C4)C2)C3)cc1` was tested, and the AC50 was > 26 µM (inactive). In the case of `O=C(Nc1cc(S(=O)(=O)N2CCCCC2)ccc1Cl)c1ccccc1NS(=O)(=O)c1ccc(F)cc1`, the AC50 is reported as > 26 µM (inactive). For `CCCCCc1ccc(OCCCC[n+]2ccc(C)cc2)c(CCCCC)c1`, the AC50 was > 26 µM (inactive). In the case of `Oc1ccc(Nc2nc(N3CCCC3)c3ccccc3n2)cc1`, the AC50 is reported as 8.57 µM. In the case of `C/C(=N\NC(=O)c1cc(C)nc2ccccc12)c1ccccn1`, the AC50 is reported as > 26 µM (inactive). For `Cn1nccc1C(=O)NC1CCCc2c1cnn2-c1ccc(F)cc1F` (stereo not given), the AC50 was > 26 µM (inactive). For `CN(C)c1ccc(/C=C(\C#N)C(=O)OCC(=O)N(C)C2CCS(=O)(=O)C2)cc1` (stereo not given), the AC50 was > 26 µM (inactive). `CCCCSc1ccc(NC(=O)c2cccnc2)cc1` was tested, and the AC50 was > 26 µM (inactive). With `O=C(N/N=C\c1c(O)ccc2ccccc12)c1ccc(Cn2cccn2)o1` the AC50 was > 26 µM (inactive). With `CCCCOc1ncnc2c1[nH]c1ccc(F)cc12` the AC50 was > 26 µM (inactive). With `Nc1c(Cl)ncnc1N/N=C/c1ccc2ccccc2n1` the AC50 was > 26 µM (inactive). For `O=C(NCc1cccnc1)Nc1ccc([N+](=O)[O-])cc1`, the AC50 was > 26 µM (inactive). In the case of `CC(Sc1nnc2c(n1)[nH]c1ccccc12)C(=O)N(C)C1CCCCC1` (stereo not given), the AC50 is reported as > 12 µM (inactive). `CCCCCCCCCCOC(=O)Cn1c(COc2cccc(C)c2)[n+](C)c2ccccc21` was tested, and the AC50 was > 26 µM (inactive). With `O=C(OCn1ncc(Br)c(Br)c1=O)c1ccc(F)cc1` the AC50 was > 26 µM (inactive). In the case of `CCCC[n+]1ccn(C2=C([O-])c3ccccc3C(=O)/C2=N\S(=O)(=O)c2ccc(Br)cc2)c1`, the AC50 is reported as > 26 µM (inactive). `Oc1cc(-c2ccc(N3CCCCC3)nc2)cc2cccnc12` was tested, and the AC50 was > 26 µM (inactive). In the case of `CC1=NNC(=O)/C1=C\c1cn(-c2ccccc2)nc1-c1cccs1`, the AC50 is reported as > 26 µM (inactive). `C/C(=N\NC(=O)c1ccccc1NC(=O)c1ccc(Cl)cc1)c1ccncc1` was tested, and the AC50 was > 26 µM (inactive). `CCOc1ccc(S(=O)(=O)N2CCCCC2)cc1NC(=O)CN1CCCC1c1cccs1` (stereo not given) was tested, and the AC50 was > 26 µM (inactive). `CCn1c(-c2ccc(N(C)C)cc2)nc2ccccc21` was tested, and the AC50 was > 26 µM (inactive). For `CC1=C(CC(=O)c2ccc(Cl)cc2)C(=O)c2ccccc2C1=O`, the AC50 was > 26 µM (inactive). `CN1/C(=C\C(=O)CN2C(=O)NC3(CCCCCC3)C2=O)C(C)(C)c2ccccc21` was tested, and the AC50 was > 12 µM (inactive). With `Cc1ccc(-n2c(Cl)c(Cl)nc(Cl)c2=O)cc1` the AC50 was > 26 µM (inactive). `O=C(NCc1ccccc1)C1=C[C@H](c2csc3ccccc23)C[C@H](OCCCCO)O1` was tested, and the AC50 was > 26 µM (inactive). `COc1ccc(C(NC(C)=O)c2ccc3cccnc3c2O)c(OC)c1` (stereo not given) was tested, and the AC50 was > 26 µM (inactive). With `O=C(OCn1ncc(Cl)c(Cl)c1=O)c1ccccc1Cl` the AC50 was > 26 µM (inactive). `COc1ccc(CC(=O)Nc2nc(-c3ccc(F)c(F)c3)cs2)cc1OC` showed an AC50 of 26.5 µM. In the case of `Cc1ccc(NS(=O)(=O)c2cc([N+](=O)[O-])ccc2NNC(=S)Nc2cc(C)ccc2C)c(C)c1`, the AC50 is reported as > 26 µM (inactive). For `C/C(=N\NC(=O)c1cc(-c2cccnc2)nc2ccccc12)c1ccc(O)cc1O`, the AC50 was > 26 µM (inactive). In the case of `Cc1ccn2c(Nc3ccccc3C)c(-c3ccccn3)nc2c1`, the AC50 is reported as > 26 µM (inactive). In the case of `CCOc1ccc(C(Nc2cccnc2)c2cc(Cl)c3cccnc3c2O)cc1` (stereo not given), the AC50 is reported as > 26 µM (inactive). In the case of `C[N+]1=C(/C=C/Nc2ccccc2Cl)C(C)(C)c2ccccc21`, the AC50 is reported as > 26 µM (inactive). `O=C(Cc1ccc(Cl)cc1)c1c[nH]c(C(=O)NCc2cccnc2)c1` was tested, and the AC50 was > 26 µM (inactive). With `CN(C)c1ccc(-c2cc(O)c3ncccc3c2)cc1` the AC50 was > 26 µM (inactive). For `C#CC[N+](C)(C)CCCCCCCCCCCC`, the AC50 was > 26 µM (inactive). With `Cc1ccc2c(c1)nnn2C1CCN(S(=O)(=O)c2ccc(C(=O)N3C(C)CCCC3C)cc2)CC1` (stereo not given) the AC50 was > 26 µM (inactive). In the case of `N#CCSc1nc2ccccc2c2nc3ccccc3n12`, the AC50 is reported as > 26 µM (inactive). With `CC(C)(C)Sc1ccc2nc3c(n2c1)CCCC3` the AC50 was > 26 µM (inactive). With `N#Cc1ccc(C(=O)Nc2nc(-c3cccs3)c(C(=O)C(F)(F)F)s2)cc1` the AC50 was > 26 µM (inactive). For `N#C/C(=N\Nc1cccc([N+](=O)[O-])c1)C(=O)c1ccc(Br)cc1`, the AC50 was > 26 µM (inactive). For `Cn1ncc2c(N3CCN(c4ccc(Cl)c(Cl)c4)CC3)ncnc21`, the AC50 was > 26 µM (inactive). `O=C(N/N=C/c1sc2ccccc2c1O)c1cccc2ccccc12` was tested, and the AC50 was > 26 µM (inactive). `C/C(=N\NC(=O)COc1ccccc1-c1ccccc1)c1ccc(O)cc1O` was tested, and the AC50 was > 26 µM (inactive). In the case of `Oc1c(C(c2ccccc2Cl)N2CCCC2)ccc2cccnc12` (stereo not given), the AC50 is reported as > 26 µM (inactive). In the case of `O=c1c(Cl)c(Cl)cnn1Cc1ccc(F)cc1`, the AC50 is reported as > 26 µM (inactive). With `CCN(CC)CCOc1ccc2c(c1)C(=NNC(=O)c1ccccn1)c1cc(OCCN(CC)CC)ccc1-2` the AC50 was > 26 µM (inactive). `CCCCSc1nc2sc3c(c2c(=O)n1-c1ccc(C)cc1)CCN(C)C3` was tested, and the AC50 was > 26 µM (inactive). `CCN1CCN(Cc2ccc(NC(=O)c3cc(NC(=O)c4cncc(-c5ccc(C#N)cc5)c4)cc(OC)c3)cc2C(F)(F)F)CC1` was tested, and the AC50 was > 26 µM (inactive). With `COc1ccccc1NC(=O)c1nc(S(=O)(=O)Cc2ccccc2)ncc1Cl` the AC50 was > 26 µM (inactive). In the case of `CC(C)Cn1c(SCC(=O)N2CCc3ccccc3C2)nc2cc(Cl)ccc2c1=O`, the AC50 is reported as > 26 µM (inactive). With `OCCNc1nc(Nc2ccc(Cl)c(Cl)c2)nc2ccccc12` the AC50 was > 26 µM (inactive). `CCCCCCCCCCOC(=O)C[N+](C)(C)C/C=C(/C)Cl` was tested, and the AC50 was > 26 µM (inactive). With `Cc1cc(-n2c(SCC(=O)Nc3ccc(F)c(F)c3)nc3n[nH]c(C)c3c2=N)ccc1Cl` the AC50 was > 26 µM (inactive). For `Cc1cc(N2CCN(S(=O)(=O)c3ccc(Cl)cc3)CC2)c2ccccc2n1`, the AC50 was > 12 µM (inactive). `C=C[C@H](CC(C)C)N(Cc1ccccc1)S(=O)(=O)N(Cc1ccc(OC)cc1)[C@H](C=C)CC(C)C` was tested, and the AC50 was > 26 µM (inactive). In the case of `Cc1[nH]n(-c2ccccc2)c(=O)c1/C=N\NC(=O)C1COc2ccccc2O1` (stereo not given), the AC50 is reported as > 26 µM (inactive). With `Cc1nc2ccccc2n1Cc1ccc(Br)cc1` the AC50 was > 26 µM (inactive). In the case of `COc1ccc(-c2cc(-c3ccccc3)[n+](C)c(-c3ccccc3)c2)cc1`, the AC50 is reported as > 26 µM (inactive). For `O=C(N/N=C/c1cccnc1)c1ccc(NC(=O)C(c2ccccc2)c2ccccc2)cc1`, the AC50 was > 26 µM (inactive). `COc1ccc(NS(=O)(=O)c2ccc(-c3coc(C)n3)cc2)cc1OC` was tested, and the AC50 was > 26 µM (inactive). In the case of `O=c1cc(N2CCN(c3cccc(Cl)c3)CC2)[nH]c(=O)n1C1CCCCC1`, the AC50 is reported as > 26 µM (inactive). In the case of `Cc1cccc(NC(=O)Nc2cccc(Oc3c(F)c(F)c(F)c(F)c3F)c2)c1`, the AC50 is reported as > 26 µM (inactive). With `CN(c1ccccc1)S(=O)(=O)c1ccc(NC(=O)c2nc(S(C)(=O)=O)ncc2Cl)cc1` the AC50 was > 26 µM (inactive). With `Oc1c(Br)cc(Br)cc1/C=N/Nc1ccc(Cl)nn1` the AC50 was > 26 µM (inactive). `CC1CCC(C(C)C)C(OC(=O)Cn2c(-c3ccc(F)cc3)[n+](C)c3ccccc32)C1` (stereo not given) was tested, and the AC50 was > 26 µM (inactive). For `C=C1CCc2c([nH]c3ccc(OCC(C)C)cc23)C1=O`, the AC50 was > 26 µM (inactive). With `CN(C1=C(NC(=O)c2ccc(Cl)cc2)C(=O)c2ccccc2C1=O)c1ccccc1` the AC50 was > 26 µM (inactive). With `Cc1ccc(C#CC[N+]2(CC#Cc3ccc(C)cc3)CCCCC2)cc1` the AC50 was > 26 µM (inactive). In the case of `O=C1C=C(Nc2ccccc2)C(=O)c2ccccc21`, the AC50 is reported as > 26 µM (inactive). `CCN(CC)S(=O)(=O)c1ccc(Oc2ccc(S(=O)(=O)N(CC)CC)cc2)cc1` was tested, and the AC50 was > 26 µM (inactive). `C/C(=N\N1C(=O)c2ccccc2NC1c1ccco1)c1ccccc1O` (stereo not given) was tested, and the AC50 was > 26 µM (inactive). For `COc1ccc(C(=O)c2c(C(F)(F)F)oc3c2C(=O)c2ccccc2C3=O)cc1`, the AC50 was > 26 µM (inactive). With `Cc1ccc(NC(=O)Cn2c(=O)oc3cc(S(=O)(=O)N4CCC(C)CC4)ccc32)cc1C` the AC50 was > 26 µM (inactive). For `O=NN(CCc1ccncc1)c1ccc(OCc2ccccc2)cc1`, the AC50 was > 26 µM (inactive). `CC(=O)c1ccc(OCc2cc(C(=O)N3CCCCC3c3cccnc3)no2)cc1` (stereo not given) was tested, and the AC50 was > 26 µM (inactive). `CNC1=C(N(C(C)=O)c2ccc(Br)cc2)C(=O)c2ccccc2C1=O` was tested, and the AC50 was > 26 µM (inactive). `O=c1[nH]c(NCCCO)nc2c1C1(CCCC1)Cc1ccccc1-2` was tested, and the AC50 was > 26 µM (inactive). For `COC(=O)C1=C(C)N(Cc2ccccc2)C(=NCc2cccc(C(F)(F)F)c2)N[C@H]1c1cccc(F)c1`, the AC50 was > 26 µM (inactive). `COc1ccc(C2/C=C\CN(C(=O)c3ccc(C)cc3)[C@H](Cc3ccccc3)C(=O)N2Cc2ccc(F)cc2)cc1` (stereo not given in full) was tested, and the AC50 was > 26 µM (inactive). In the case of `Cc1ccc(C(C)C)c(OCc2ccc(C(=O)N/N=C/c3cccc(O)c3O)cc2)c1`, the AC50 is reported as > 26 µM (inactive).
